Measured values published in patent publication US10195204B2, “Methods of treating hemoglobinopathies” (DUKE UNIVERSITY, priority 2011, dated 2019).
Entries after “also recorded” stand apart in the source; their conditions may differ. Where two headings read alike, the source gives them in different places.

Tests used:
[1] = system: cAMP production in SS RBCs
Method: Whole cell cAMP accumulation was assayed to assess the functional capacity of the RBC β2-ARs to stimulate the production of cAMP. Washed packed RBCs were pre-treated with IBMX to define basal cAMP accumulation, followed by treatment with epinephrine for 1 min or 30 min, or forskolin. Samples were placed on ice, stimulation was halted, and cells fixed by the addition of 12.5 mM EDTA. Cell samples were boiled, clarified by centrifugation and assayed for cAMP content by radioimmunoassay as described previously.^22 Basal cAMP production was subtracted from the total cAMP produced by the cells. The amounts of cAMP were then normalized as fmol cAMP/10^8 RBCs.

[2] = system: ERK1/2; conditions: ERK1/2 from epinephrine-treated SS RBCs, n=4
Method: Treated packed SS RBCs were lysed for 20 min at 4° C. with lysis buffer (10 mM EDTA, 20 mM Tris, 110 mM NaCl, pH 7.5) containing 2 mM PMSF, 1% Triton X-100, phosphatase inhibitor cocktail (Sigma) and protease inhibitor cocktail (Sigma). ERK1/2 was immunoprecipitated with anti-ERK1/2 antibody at 4° C., and immune complexes were obtained using protein A-agarose (Amersham Biosciences Corp., Piscataway, N.J.). ERK1/2 immunocomplex was examined for ERK1/2 activity using myelin basic protein (MBP) at 2 mg/ml (Millipore) as a substrate and ATP as a phosphate donor with equal protein amounts per assay condition. For the negative control, an equal volume of water was substituted for ERK1/2 substrate. […] The reaction mixture was incubated for 20 min at 30° C., followed by protein separation and immunoblotting using anti-phosphoMBP mAb (Millipore).

[3] = system: SS RBC adhesion to TNF-α-activated HUVECs; assay: Flow chamber adhesion of SS RBCs to TNF-α-activated HUVECs; format: cell-based, human
Method: Cells were then washed three times with 5 ml PBS with Ca^2+ and Mg^2+. Prior to adhesion assays, washed treated SS RBCs were labeled with PKH 26 red fluorescent cell linker kit (Sigma-Aldrich, St. Louis, Mo.), following the manufacturer's instructions.
Graduated height flow chambers were used to quantify adhesion of RBCs to HUVECs substantially as previously described in detail.^4, 20 In some adhesion studies, slides coated with HUVECs were treated with human recombinant TNF-α at 10 ng/ml for 4 hours. Slides coated with HUVECs treated or not with TNF-α were then washed three times with 20 ml HBSS with 1.26 mM Ca^2+, 0.9 mM Mg^2+ (Gibco, Grand Island, N.Y.) warmed previously to 37° C. and then fit into a variable height flow chamber. The flow chamber was mounted on the stage of an inverted phase contrast microscope (Diaphot, Nikon Inc., Melville, N.Y.) connected to a thermoplate (Tokai Hit Co., Ltd., Japan) set at 37° C. Cells were observed using a video camera (RS photometrics,) attached to the microscope and connected to a Macintosh G4 computer. RBC (3 ml) suspended at 0.2% (vol/vol) in HBSS with Ca^2+, Mg^2+ were infused into the flow chamber and allowed to adhere to the slide for 10 min without flow. Before exposure to flow, a minimum of three fields at each of seven different locations along a line oriented normal to future flow were examined for the total number of fluorescent cells. Fluid flow (HBSS with Ca^2+, Mg^2+) was then started using a calibrated syringe pump. After exposure to flow, the fields were again examined and the number of adherent cells counted. The fraction of adherent cells was presented as (number of cells attached after exposure to flow)/(cells present per field before flow). The wall shear stress was calculated as:
[formula] τw=wall shear stress (dyne/cm^2); Q=volumetric flow rate (cm^3/s); μ is media viscosity, w is the width of the flow channel, and H(x) is the height of the flow chamber as a function of position along the microscope slide. Several investigators have shown that blood flow in small vessels may be continuous, with shear stresses of 1-2 dynes/cm^2, or flow may be intermittent. Our data were obtained using both intermittent and continuous flow conditions.

[4] = system: human SS RBC adhesion to vascular endothelium and vaso-occlusion
Method: All animal experiments were carried out in accordance with protocols approved by the Duke University Animal Care and Use Committee. Female athymic homozygous nude mice (nu-/nu-) were between 8-12 weeks of age (Charles River Laboratories, Wilmington, Mass.).
General anesthesia was achieved by intra-peritoneal injection of 100 mg/kg of ketamine (Abbott Laboratory, Chicago, Ill.) and 10 mg/kg of xylazine (Bayer, Shawnee Mission, Kans.). A double-sided titanium frame window chamber was surgically implanted into the dorsal skin fold under sterile conditions using a laminar flow hood. Surgery involved carefully removing the epidermal and dermal layers of one side of a dorsal skin fold, exposing the blood vessels of the subcutaneous tissue adjacent to the striated muscles of the opposing skin fold, and then securing the two sides of the chamber to the skin using stainless steel screws and sutures. A glass window was placed in the chamber to cover the exposed tissue and secured with a snap ring. Subsequently, animals were kept at 32-34° C. until in vivo studies were performed 3 days post-surgery.
Murine recombinant TNF-α was dissolved in normal saline at a concentration of 0.1 mg/mL and mice bearing dorsal-skin window chamber implants were given a single intraperitoneal (IP) injection of 20 μg/kg TNF-α and control animals received same volume of normal saline. […] Thirty minutes later, labeled human SS RBCs (300 μl hematocrit (Hct) 50% in PBS with Ca^2+ and Mg^2+) were then infused. […] Animals were placed on the stage of an Axoplan microscope (Carl Zeiss, Thornwood, N.Y.); temperature was maintained at 37° C. using a thermostatically controlled heating pad. […] Microcirculatory events and cell adhesion were simultaneously recorded using a Trinitron Color video monitor (PVM-1353 MD, Sony) and JVC videocassette recorder (BR-53784, VCR King, Durham, N.C.) connected to a digital video camera C2400 (Hamamatsu Photonics K.K., Japan). Arterioles were distinguished from venules based on: 1) observation of divergent flow as opposed to convergent flow; 2) birefringent appearance of vessel walls using transillumination, which is characteristic of arteriolar vascular smooth muscle; and 3) relatively straight vessel trajectory without evidence of tortuosity. Cell adherence was quantitated by considering cells attached to the vessel walls and immobile for 1 minute. The percentage of the length of vessels with diameters≤25 μm or >25 μm, occupied by SS RBCs was quantified as: % venular length occupied by SS RBCs=length of vessel wall with adherent cells/total length of the vessel segments analyzed×100.

[5] = system: human SS RBC adhesion in inflamed venules and vaso-occlusion; assay: Intravital microscopy in TNF-α-treated nude mice infused with human SS RBCs treated ex vivo with MEK inhibitor; conditions: for percentage of venular length occupied by treated SS RBCs: compared to sham
Source text: For some in vivo adhesion studies, packed SS RBCs were fluorescently labeled with the dye Dil (Molecular Probes Inc., Eugene, Oreg.), following the manufacturer's instructions. […] Cell morphology was checked by microscopy.

[6] = system: PMN adhesion to non-activated HUVECs; assay: Adhesion to HUVECs of PMNs co-incubated with epinephrine-stimulated SS RBCs; format: cell-based, human; conditions: SS RBCs pre-incubated with inhibitor for 1 hour, then 20 nM epinephrine 1 min
Method: The cells were then washed prior to admixture with fluorescently-labeled native polymorphonuclear cells (PMNs) obtained from healthy donors at a RBC:PMN ratio of 10:1. After co-incubation for 30 minutes at 37° C., cells mixtures were assayed for their ability to adhere to non-activated HUVECs. […] Downregulation of RBC adhesion receptor activity by targeting ERK may not only decrease SS RBC adhesion to the endothelium but also reduce RBC-stimulated leukocyte activation.

[7] = 2 mg/kg U0126 in 0.4% DMSO i.v. 30 min prior to RBC infusion
[8] = SS RBCs treated ex vivo with 10 μM inhibitor for 1 hour, n=5

Row | Compound | intracellular cAMP ([1]; epinephrine 1 min, about 50% of samples (n=19)) | cAMP levels ([1]; epinephrine 30 min) | MBP phosphorylation by immunoprecipitated ERK1/2, increase vs sham-treated cells [2] [fold] | SS RBCs adherent to TNF-α-activated HUVECs ([3]; SS RBCs pre-treated with 10 μM U0126) [%] | effect on SS RBC adhesion to TNF-α-activated HUVECs ([3]; SS RBCs treated with MEK inhibitor (10 μM; RDEA119 1 and 10 μM)) | vaso-occlusion ([4]; 0.2 mg/kg U0126 in 0.04% DMSO i.v. 30 minutes prior to RBC infusion) | SS RBC adhesion to vascular endothelium [4, 7] | vaso-occlusion [4, 7] | percentage venular length occupied by SS RBCs ([4]; U0126 at 0.2 mg/kg, vessel diameter >25 μm) | percentage venular length occupied by SS RBCs ([4]; U0126 at 0.2 and 2 mg/kg, vessels 25 μm in diameter, vs placebo) | human SS RBC adhesion in inflamed venules [5, 8] | vessel obstruction [5, 8] | percentage of venular length occupied by treated SS RBCs ([5]; vessels 25 μm in diameter) | percentage of venular length occupied by treated SS RBCs ([5]; vessels with a diameter >25 μm) | ability of epinephrine-activated SS RBCs to promote neutrophil (PMN) adhesion to HUVECs [6]
1 | CNC[C@H](O)c1ccc(O)c(O)c1 [epinephrine] | accumulation of high levels of intracellular cAMP | uniformly declined | 2.1±0.3 | – | – | – | – | – | – | – | – | – | – | – | –
2 | N#CC(=C(/N)Sc1ccccc1N)/C(C#N)=C(\N)Sc1ccccc1N [U0126] | – | – | – | 18±5 | significantly reduced; also recorded: significantly inhibited | no apparent vaso-occulsion | very little adhesion | no apparent vaso-occlusion | did not significantly reduce | significant decrease | dramatically decreased | prevented vessel obstruction | significantly decreased | significantly decreased | significantly decreased
